The record followed here is paper PMC3724850, “A Scallop Nitric Oxide Synthase (NOS) with Structure Similar to Neuronal NOS and Its Involvement in the Immune Defense” (PLoS ONE, 2013).

The experiment addresses T1, CfNOS (native) (Azumapecten farreri, UniProt S4UD24).
T1 construct: gene NOS; immunoprecipitated from scallop haemocyte lysate with rat polyclonal antibody to rCfNOS, Protein G column
T1 sequence (S4UD24 1-1486): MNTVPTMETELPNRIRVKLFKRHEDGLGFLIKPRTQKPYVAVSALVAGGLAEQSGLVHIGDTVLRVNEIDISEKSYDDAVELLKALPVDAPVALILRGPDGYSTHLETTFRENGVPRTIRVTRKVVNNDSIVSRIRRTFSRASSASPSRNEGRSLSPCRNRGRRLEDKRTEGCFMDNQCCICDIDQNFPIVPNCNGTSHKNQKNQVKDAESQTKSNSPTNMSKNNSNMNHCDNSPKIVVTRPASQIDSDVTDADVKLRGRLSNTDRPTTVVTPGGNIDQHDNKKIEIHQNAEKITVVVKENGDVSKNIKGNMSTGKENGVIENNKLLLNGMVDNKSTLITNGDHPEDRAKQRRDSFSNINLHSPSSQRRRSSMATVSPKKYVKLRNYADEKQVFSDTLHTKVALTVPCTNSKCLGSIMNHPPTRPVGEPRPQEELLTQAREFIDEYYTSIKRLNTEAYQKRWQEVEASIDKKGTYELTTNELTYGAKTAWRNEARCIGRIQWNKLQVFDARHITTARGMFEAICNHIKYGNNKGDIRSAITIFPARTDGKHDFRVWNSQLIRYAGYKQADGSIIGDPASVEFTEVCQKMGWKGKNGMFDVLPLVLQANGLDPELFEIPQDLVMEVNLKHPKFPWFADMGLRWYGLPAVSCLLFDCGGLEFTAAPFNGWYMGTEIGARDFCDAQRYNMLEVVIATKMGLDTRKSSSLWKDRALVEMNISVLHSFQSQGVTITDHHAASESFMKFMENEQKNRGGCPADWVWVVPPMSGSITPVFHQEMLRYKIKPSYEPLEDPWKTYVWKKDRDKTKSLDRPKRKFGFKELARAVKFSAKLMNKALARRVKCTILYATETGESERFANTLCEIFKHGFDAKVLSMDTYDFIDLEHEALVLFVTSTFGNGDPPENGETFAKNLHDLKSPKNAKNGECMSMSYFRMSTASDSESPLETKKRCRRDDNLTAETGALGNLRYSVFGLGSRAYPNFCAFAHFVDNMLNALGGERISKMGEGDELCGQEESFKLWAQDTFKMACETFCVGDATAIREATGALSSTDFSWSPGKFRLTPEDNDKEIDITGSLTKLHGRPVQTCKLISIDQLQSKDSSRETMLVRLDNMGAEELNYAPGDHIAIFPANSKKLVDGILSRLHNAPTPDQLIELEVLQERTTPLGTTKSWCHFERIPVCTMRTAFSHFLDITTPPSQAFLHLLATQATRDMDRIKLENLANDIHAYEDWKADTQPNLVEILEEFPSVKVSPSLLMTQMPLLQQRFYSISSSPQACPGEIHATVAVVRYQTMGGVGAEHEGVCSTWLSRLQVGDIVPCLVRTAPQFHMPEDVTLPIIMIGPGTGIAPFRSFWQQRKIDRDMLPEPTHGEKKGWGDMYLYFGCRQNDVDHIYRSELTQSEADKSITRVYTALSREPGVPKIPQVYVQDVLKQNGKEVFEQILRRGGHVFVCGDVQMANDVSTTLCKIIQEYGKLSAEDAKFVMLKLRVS
Put plainly: NOS activity by total NOS detection kit (absorbance […] nm). Type of experiment: biochemical. To be noted: no inhibitor; immunoprecipitated native enzyme.

`N=C(N)NCCC[C@H](N)C(=O)O` [L-Arginine]: the “NOS activity by total NOS detection kit (absorbance 530 nm)” value is on record as “measuring the NO production using L-Arginine as the substrate”.
